Assay results reported in ChEMBL document CHEMBL1137110, “Synthesis and biological activity of 22-oxa CD-ring modified analogues of 1alpha,25-dihydroxyvitamin D3: spiro[5.5]undecane CF-ring analogues” (2004).

Assays:
[1] = biological target: T1, Vitamin D3 receptor (Homo sapiens) (UniProt P11473); experiment: Antiproliferative activity in human breast cancer MCF-7 cells relative to 1-alpha,25(OH)2D3; assay type: functional, cell-based; conditions: MCF7
T1 sequence (whole entry): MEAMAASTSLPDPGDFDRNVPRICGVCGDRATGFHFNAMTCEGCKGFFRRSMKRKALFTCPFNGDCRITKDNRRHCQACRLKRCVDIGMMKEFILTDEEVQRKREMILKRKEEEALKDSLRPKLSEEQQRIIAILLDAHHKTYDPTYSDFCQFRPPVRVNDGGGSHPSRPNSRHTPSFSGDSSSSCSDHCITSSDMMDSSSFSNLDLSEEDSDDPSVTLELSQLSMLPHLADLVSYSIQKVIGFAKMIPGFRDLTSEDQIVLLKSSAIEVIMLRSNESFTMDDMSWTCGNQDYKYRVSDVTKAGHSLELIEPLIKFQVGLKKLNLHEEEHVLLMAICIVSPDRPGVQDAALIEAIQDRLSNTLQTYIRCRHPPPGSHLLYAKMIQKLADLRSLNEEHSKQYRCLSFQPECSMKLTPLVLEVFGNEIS

[2] = biological target: T2, Vitamin D3 receptor (Mus musculus) (UniProt P48281); experiment: Effect on Ca level in mouse serum relative to 1-alpha,25(OH)2D3 treatment; assay type: functional, in vivo
T2 sequence (whole entry): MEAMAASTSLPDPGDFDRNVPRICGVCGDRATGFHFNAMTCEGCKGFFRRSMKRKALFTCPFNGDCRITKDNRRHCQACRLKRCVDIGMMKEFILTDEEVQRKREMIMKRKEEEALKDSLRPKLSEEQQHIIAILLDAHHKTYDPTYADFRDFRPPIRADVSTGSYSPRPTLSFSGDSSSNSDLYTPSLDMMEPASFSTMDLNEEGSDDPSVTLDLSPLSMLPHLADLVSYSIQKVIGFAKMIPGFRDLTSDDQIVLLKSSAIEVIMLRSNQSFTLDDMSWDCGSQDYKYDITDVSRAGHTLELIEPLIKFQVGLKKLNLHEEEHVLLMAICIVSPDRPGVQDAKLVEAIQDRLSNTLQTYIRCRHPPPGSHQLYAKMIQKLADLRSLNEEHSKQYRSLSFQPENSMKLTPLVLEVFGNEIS

[3] = biological target: T1, Vitamin D3 receptor (Homo sapiens); experiment: Differentiation activity in human leukemia HL-60 cells relative to 1-alpha,25(OH)2D3; assay type: functional, cell-based
[4] = biological target: T3, Vitamin D3 receptor (Sus scrofa) (UniProt A3RGC1); experiment: Binding affinity for pig nuclear vitamin D receptor relative to 1-alpha,25(OH)2D3
T3 sequence (whole entry): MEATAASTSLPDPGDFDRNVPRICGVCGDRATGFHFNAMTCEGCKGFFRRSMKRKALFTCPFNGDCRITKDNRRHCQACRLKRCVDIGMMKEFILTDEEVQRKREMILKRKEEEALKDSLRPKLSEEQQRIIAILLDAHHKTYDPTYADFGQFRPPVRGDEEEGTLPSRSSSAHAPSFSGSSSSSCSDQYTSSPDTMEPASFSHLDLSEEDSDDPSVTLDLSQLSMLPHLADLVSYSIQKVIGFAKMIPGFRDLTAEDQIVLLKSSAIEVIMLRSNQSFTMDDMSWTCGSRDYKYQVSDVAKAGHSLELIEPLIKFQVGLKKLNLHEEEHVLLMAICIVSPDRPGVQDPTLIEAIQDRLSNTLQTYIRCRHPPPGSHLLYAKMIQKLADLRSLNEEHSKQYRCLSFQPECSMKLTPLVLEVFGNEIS

MCF7 = experiment: Antiproliferative activity on human breast cancer MCF-7 cells was determined; assay type: functional
[5] = biological target: T3, Vitamin D3 receptor (Sus scrofa); experiment: Binding affinity for pig nuclear vitamin D receptor
Mus musculus = species on record: Mus musculus; experiment: Effect of compound on Ca level in mice blood serum was determined; assay type: functional
HL-60 = experiment: Prodifferentiating activity of compound on human leukemia HL-60 cells was determined; assay type: functional

Activity [1]	Activity [2]	Activity [3]	Activity [4]	Activity [5]	SMILES	Activity (MCF7)	Activity (Mus musculus)	Activity (HL-60)
10	< 0.25	–	0.5	–	C=C1/C(=C\C=C2/CCC[C@]3(CC[C@@H](OCCC(C)(C)O)CC3)C2)C[C@@H](O)C[C@@H]1O	–	–	–
0	< 0.25	< 1	< 0.1	–	C=C1/C(=C/C=C2/CCC[C@]3(CC[C@H](OCCC(C)(C)O)CC3)C2)C[C@@H](O)C[C@@H]1O	–	–	–

More lines, now with the values behind:

SMILES	Activity [1]	Activity [2]	Activity [3]	Activity [4]	Activity [5]	Activity (MCF7)	Activity (Mus musculus)	Activity (HL-60)
CC(C)(O)CCO[C@H]1CC[C@@]2(CCC/C(=C\C=C3C[C@@H](O)C[C@H](O)C3)C2)CC1	60	< 0.25	8	< 0.1	–	–	–	–
CC(C)(O)CCO[C@H]1CC[C@]2(CCC/C(=C\C=C3C[C@@H](O)C[C@H](O)C3)C2)CC1	7	< 0.25	6	< 0.1	–	–	–	–
C=C1/C(=C\C=C2/CCC[C@]3(C)[C@@H]([C@H](C)CCCC(C)(C)O)CC[C@@H]23)C[C@@H](O)C[C@@H]1O [CALCITRIOL]	–	–	–	–	100	100	100	100
